# Source: ChEMBL document CHEMBL3430912, “GSK Tres Cantos Anti-Kinetoplastid Screening (TCAKS) Data”
# What was measured:
# [1] = test system: Trypanosoma cruzi; assay: GSK_TCAKS: pIC50 Trypanosoma cruzi viability assay using beta-GAL activity. This assay was run at single shot at 5uM compound concentration per well. The biological reagents consisted of NIH-3T3 host cells and trypomastigotes parasitic cells; both cell types were set to a 3.3 * 10^5 cells/mL dilution in assay DMEM by means of a CASY cell counter device using a 60um capillary. 6 uL of the mixture were dispensed per well (about 1 * 10^3 host-cells and 1 * 10^3 parasites) with a Multidrop Combi dispenser. […] In all wells, the percentage of DMSO never exceeded 0.5%. Plates incubated for four days at 37C, 5% CO2. The substrate used for the assay fluorescence intensity (FLINT) readout was resorufin-beta-D-galactopiranoside (Sigma-Aldrich) at 5uM per well. It was diluted in PBS supplemented with the soft detergent Igepal (Fluka).; assay type: functional, organism-based, Mus musculus; conditions: Tulahuen, NIH3T3
# [2] = test system: Trypanosoma cruzi; assay: (§1) GSK_TCAKS: pIC50 Trypanosoma cruzi Imaging: Infected Cells. […] Cells were then washed once with PBS before infection. T. cruzi trypomastigotes, collected at days 5 to 8 after infection from LLC-MK2 parasite infected cultures, were allowed to swim out for 4h at 37C from a centrifuged pellet (2,500 rpm/10 min/room temperature). Trypomastigotes were then collected and counted in a CASY Cell Counter. Trypomastigotes, in supplemented DMEM, were added to H9c2 cultures in a multiplicity of infection of 1 and incubated for 18 h. Cells were washed once with PBS before incubation of the infected H9c2 monolayer with trypsin (Life-Technologies) to detach cells from the flask. Cells were counted in a CASY Cell Counter using a 150 um capillary and their density set at 5 * 10^4 cells per mL in supplemented assay DMEM. Infected H9c2 were dispensed into 384-well poly-lysine coated assay plates at 50uL per well using a Multidrop Combi dispenser. After seeding them, the plates were incubated at 37C, 5% CO2 for 72h. Cultures were then fixed and stained by addition of 50 uL of a solution containing 8% formaldehyde and 4 uM DRAQ5 DNA dye (BioStatus, UK) per well. […] Five images were collected per well for reliable statistical analysis. Automated image analysis was performed with a script developed on Acapella High Content Imaging and Analysis Software (PerkinElmer). Output: percentage of infected cells per well as a second infection marker.; assay type: functional, organism-based, Rattus norvegicus; conditions: H9c2, 4 h
# [3] = test system: Trypanosoma cruzi; assay: GSK_TCAKS: pIC50 Trypanosoma cruzi Imaging: Amastigotes/Cell. […] Cells were then washed once with PBS before infection. T. cruzi trypomastigotes, collected at days 5 to 8 after infection from LLC-MK2 parasite infected cultures, were allowed to swim out for 4h at 37C from a centrifuged pellet (2,500 rpm/10 min/room temperature). Trypomastigotes were then collected and counted in a CASY Cell Counter. Trypomastigotes, in supplemented DMEM, were added to H9c2 cultures in a multiplicity of infection of 1 and incubated for 18 h. Cells were washed once with PBS before incubation of the infected H9c2 monolayer with trypsin (Life-Technologies) to detach cells from the flask. Cells were counted in a CASY Cell Counter using a 150 um capillary and their density set at 5 * 10^4 cells per mL in supplemented assay DMEM. Infected H9c2 were dispensed into 384-well poly-lysine coated assay plates at 50uL per well using a Multidrop Combi dispenser. After seeding them, the plates were incubated at 37C, 5% CO2 for 72h. Cultures were then fixed and stained by addition of 50 uL of a solution containing 8% formaldehyde and 4 uM DRAQ5 DNA dye (BioStatus, UK) per well. […] Five images were collected per well for reliable statistical analysis. Automated image analysis was performed with a script developed on Acapella High Content Imaging and Analysis Software (PerkinElmer). Output: number of amastigotes per cell as infection level measurement.; assay type: functional, organism-based, Rattus norvegicus; conditions: H9c2, 4 h
# [4] = test system: Trypanosoma cruzi; assay: as §1, with “H2C9” for “Trypanosoma cruzi”, “H9c2 Host Cardiomyocytes.” for “Infected Cells.”, “Number” for “percentage”, “H9c2 Host Cardiomyocytes nuclei to determine drug-related cytotoxicity.” for “infected cells per well as a second infection marker.”; assay type: functional, organism-based, Rattus norvegicus; conditions: H9c2, 4 h
# [5] = test system: Leishmania donovani; assay: GSK_TCAKS: pIC50 Leishmania donovani viability assay using fluorescence intensity. Assay plates (1536-well) were prepared by adding 30nL per well of compound. For single shot assay, the final compound concentration was 5uM. […] Briefly, eGFP LdBOB axenic amastigotes were harvested, fixed and counted in a CASY cell counter (Roche-Applied Science). A final concentration of 1.5 * 10^5 cells per well were prepared in amastigote media containing 500 U/mL penicillin/streptomycin (Invitrogen) and 6uL was dispensed to each experimental well using a Multidrop Combi dispenser (Thermo Scientific). 6uL of assay media was dispensed to control columns used as reference for 100% compound response. Following incubation for 72 h at 37C, 5% CO2, 2 uL of resazurin was added to each well at a final concentration of 0.5 mM in phosphate buffered saline (PBS) with IGEPAL (Sigma-Aldrich), 0.05% (v/v).; assay type: functional, organism-based
# [6] = test system: Leishmania donovani; assay: (§2) GSK_TCAKS: pIC50 Leishmania donovani Imaging: Infected Macrophages. Assay plates (384-well) were prepared by adding 250nL of compound to each well. For single shot assay, the final compound concentration was 5 uM. […] Automated image analysis was performed with a script developed on Acapella High Content Imaging and Analysis Software (PerkinElmer). Output: Percent of infected macrophage cells were reported for each well.; assay type: functional, organism-based, Homo sapiens; conditions: THP-1
# [7] = test system: Leishmania donovani; assay: as §2, with “Amastigotes/Macrophages.” for “Infected Macrophages.”, “Average number” for “Percent”, “amastigotes per” for “infected”, “cell” for “cells”; assay type: functional, organism-based, Homo sapiens; conditions: THP-1
# [8] = test system: Leishmania donovani; assay: as §2, with “THP-1 Host” for “Infected”, “THP-1 cell count” for “Percent of infected macrophage cells”; assay type: functional, organism-based, Homo sapiens
# [9] = test system: Trypanosoma brucei brucei; assay: GSK_TCAKS: pIC50 Trypanosoma brucei viability assay using fluorescence intensity. Assay plates (1536-well) were prepared by dispensing 25nL of compound solution per well using an Echo acoustic dispenser (Labcyte).; assay type: functional, organism-based; conditions: Lister 427, 2 h
# [10] = test system: Trypanosoma brucei brucei; assay: GSK_TCAKS: pIC50 Trypanosoma brucei viability assay using luminiscence. Assay plates (1536-well) were prepared. T. brucei cultures were harvested and counted in a CASY cell counter. A parasite suspension was prepared at a final concentration of 5 * 10^4 cells/mL in complete HMI9 medium and 6uL was dispensed to all wells containing compounds using a Multidrop Combi dispenser. 6uL of HMI9 media with 0.4% DMSO were dispensed to control columns. Plates were incubated for 24 h at 37C, 5% CO2 then tempered for 10 min at room temperature. ATP content was quantified by adding 4 uL of CellTiter-Glo Reagent (Promega) according to the manufacturer's instructions. Luminescence was measured using a ViewLux.; assay type: functional, organism-based; conditions: Lister 427, CASY
# [11] = GSK_TCAKS: pIC50 HepG2 human cell line viability assay using luminiscence. […] Seeding density was checked to ensure that new mono-layers were not more than 50% confluent at the time of harvesting. Cell suspension was added to 500 mL of the same medium at a final density of 1.2 * 10^5 cells/mL. This cell suspension was dispensed (25 uL, 3000 cells per well) into 384-well clear-bottom plates using a Multidrop Combi dispenser. Prior to addition of the cell suspension, the screening compounds (250 nL) were pre-dispensed into the plates with an Echo liquid handler. Plates were incubated for 48 h at 37C, 5% CO2. After incubation, plates equilibrated at room temperature for 30 min before proceeding to develop the luminescent signal. The signal developer, CellTiter-Glo Reagent, was allowed to equilibrate at room temperature for 30 min and added to the plates (25uL per well) using a Multidrop Combi dispenser. Plates were left for 10 min at room temperature for stabilization and then read using a ViewLux.; assay type: toxicity, cell-based
# [12] = test system: NIH3T3; assay: GSK_TCAKS: pIC50 NIH 3T3 cell line viability assay using luminiscence. Tissue culture surface treated assay plates (1536-well) were used. […] The 100% cells survival control was determined exposing the host-cells to a 0.5% DMSO concentration, whereas the 100% toxicity control was achieved by seeding the cells in presence of Amphotericin B at 50uM. Plates were incubated for four days at 37C, 5% CO2. The assay readout was developed by addition of 5uL of CellTiter-Glo Reagent following the manufacturer's instructions. Luminiscence was measured using a ViewLux.; assay type: functional, cell-based; conditions: Mus musculus, NIH3T3, 96 h
# [13] = molecular target: Sterol 14-alpha demethylase (Trypanosoma cruzi (strain CL Brener), UniProt Q7Z1V1); assay: GSK_TCAKS: pIC50 CYP51 from Trypanosoma cruzi.; assay type: functional
# Sterol 14-alpha demethylase, sequence (Q7Z1V1 whole entry): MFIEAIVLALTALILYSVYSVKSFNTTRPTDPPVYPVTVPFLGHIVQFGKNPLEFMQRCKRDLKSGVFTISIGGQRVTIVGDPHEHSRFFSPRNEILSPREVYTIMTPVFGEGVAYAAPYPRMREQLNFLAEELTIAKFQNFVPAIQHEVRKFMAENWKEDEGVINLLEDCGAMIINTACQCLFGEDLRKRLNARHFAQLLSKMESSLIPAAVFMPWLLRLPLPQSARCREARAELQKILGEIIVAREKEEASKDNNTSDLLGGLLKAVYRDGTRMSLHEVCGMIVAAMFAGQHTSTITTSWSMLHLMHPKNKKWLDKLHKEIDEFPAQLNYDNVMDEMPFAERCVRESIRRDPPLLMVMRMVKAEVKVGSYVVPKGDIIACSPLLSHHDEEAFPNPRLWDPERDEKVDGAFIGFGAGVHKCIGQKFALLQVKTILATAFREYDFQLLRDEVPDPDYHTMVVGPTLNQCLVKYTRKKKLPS
Structure (SMILES),IC50 [1] [µM],IC50 [2] [µM],IC50 [3] [µM],IC50 [4] [µM],IC50 [5] [µM],IC50 [6] [µM],IC50 [7] [µM],IC50 [8] [µM],IC50 [9] [µM],IC50 [10] [µM],IC50 at 48 h [11] [µM],IC50 [12] [µM],IC50 [13] [µM]
Cc1ccc2nc(N(Cc3cccnc3)C(=O)CCc3ccccc3)sc2c1,0.0398,0.0398,0.0316,> 50.1,25.1,> 50.1,> 50.1,> 50.1,12.6,20,> 100,15.8,0.0631
O=S(=O)(NCC(c1cccnc1)N1CCN(c2ccc(F)cc2)CC1)c1cccs1 (stereo not given),0.158,0.126,0.126,> 50.1,> 50.1,> 50.1,> 50.1,> 50.1,> 39.8,> 39.8,> 100,> 50.1,0.0398
CC(CNS(=O)(=O)c1ccc(OC(F)F)cc1)c1ccc(NC(=O)c2ccncc2)cc1 (stereo not given),0.2,0.1,0.0794,> 50.1,> 50.1,> 50.1,5.01,15.8,7.94,20,100,> 50.1,0.0501
Cn1cc(CN2CCN(c3ccc4c(c3)CCN(C(=O)[C@H]3C[C@@H]3c3ccccc3)CC4)CC2)cn1,1.58,3.16,0.794,31.6,0.631,31.6,1,6.31,25.1,39.8,50.1,20,15.8
Cc1ccc(S(=O)(=O)Cn2nnnc2C(c2cccnc2)N2CCN(c3ccccc3)CC2)cc1 (stereo not given),0.501,0.316,0.316,> 50.1,1,> 50.1,> 50.1,> 50.1,31.6,> 39.8,> 100,31.6,0.2
Cc1cc(C#N)c([N+](=O)[O-])cc1Br,0.2,0.316,0.0501,50.1,25.1,39.8,31.6,25.1,0.794,3.98,31.6,20,7.94
CC(C(=O)Nc1ccc(Br)cc1)N1CCN(c2ccc([N+](=O)[O-])cc2)CC1 (stereo not given),2.51,2.51,3.16,> 50.1,> 50.1,> 50.1,> 50.1,> 50.1,> 39.8,> 39.8,> 100,> 50.1,39.8
Cc1cc2ncn(-c3ccc([N+](=O)[O-])cc3C#N)c2cc1C,1.26,2,0.794,> 50.1,> 50.1,> 50.1,> 50.1,> 50.1,20,> 39.8,> 100,> 50.1,> 100
O=C(CN(c1cccc(C(F)(F)F)c1)S(=O)(=O)c1ccc(Cl)cc1)NCc1ccc(F)c(F)c1,0.794,0.794,0.501,> 50.1,> 50.1,> 50.1,> 50.1,20,10,25.1,> 100,31.6,0.158
COc1ccc(S(=O)(=O)NCc2ccc(-c3ccc(CN(C)CCO)cc3)cc2)cc1,0.0398,2.51,1.26,> 50.1,> 50.1,15.8,20,20,3.16,3.16,50.1,15.8,15.8
CCCN1CCN(Cc2ccc(S(=O)(=O)Nc3cccc(C)c3)cc2)CC1,0.794,0.794,0.631,> 50.1,25.1,> 50.1,> 50.1,> 50.1,25.1,> 39.8,> 100,25.1,> 100
O=C(CSc1ccc(-c2ccccn2)nn1)Nc1ccc(Cl)cc1,2.51,2.51,2,> 50.1,> 50.1,> 50.1,> 50.1,> 50.1,10,> 39.8,> 100,31.6,> 100
O=C(Nc1cccc(F)c1)N1CCC(Oc2cccc(-c3cccnc3)c2)CC1,0.631,0.631,0.501,25.1,0.501,> 50.1,0.794,20,25.1,> 39.8,> 100,39.8,0.158
O=[N+]([O-])c1cccc(Nc2cncc(-c3ccccc3CO)c2)c1,0.316,0.398,0.251,> 50.1,39.8,> 50.1,> 50.1,> 50.1,> 39.8,> 39.8,> 100,39.8,3.16
O=C(NC(c1ccc(Cl)cc1)c1cnccn1)C1CCN(C(=O)Nc2cccc(C(F)(F)F)c2)CC1 (stereo not given),0.631,0.631,0.501,> 50.1,20,> 50.1,> 50.1,39.8,12.6,6.31,> 100,39.8,0.126
